Structures can show the parent of a compound that is named as a salt.

For this experiment, the target named is T1, 5HT6-human recombinant receptor (Homo sapiens, UniProt P50406).
T1 construct: purchased Receptor Biology; host or cells: HEK-293 cell membranes
Nature of the experiment: Binding to serotonin receptor 5-HT6 ([3H]-LSD radioligand displacement). Conditions: [3H]-LSD 2.7 nM, HEK-293 cell membranes. How it is done:
I) Binding to Serotonin Receptor 5-HT6
Cell membranes of HEK-293 cells expressing the 5HT6-human recombinant receptor were supplied by Receptor Biology. In said membranes the receptor concentration is 2.18 pmol/mg protein and the protein concentration is 9.17 mg/ml. The experimental protocol follows the method of B. L. Roth et al. [B. L. Roth, S. C. Craigo, M. S. Choudhary, A. Uluer, F. J. Monsma, Y. Shen, H. Y. Meltzer, D. R. Sibley: Binding of Typical and Atypical Antipsychotic Agents to 5-Hydroxytryptamine-6 and Hydroxytryptamine-7 Receptors. The Journal of Pharmacology and Experimental Therapeutics, 1994, 268, 1403] with the following slight changes. The respective part of the literature description is hereby incorporated by reference and forms part of the disclosure.
The commercial membrane is diluted (1:40 dilution) with the binding buffer: 50 mM Tris-HCl, 10 mM MgCl2, 0.5 mM EDTA (pH 7.4). The radioligand used is [^3H]-LSD at a concentration of 2.7 nM with a final volume of 200 μl. […] Non-specific binding is determined in the presence of 100 μM of serotonin. […] The inhibition constants (Ki, nM) were calculated by non-linear regression analysis using the program EBDA/LIGAND [Munson and Rodbard, Analytical Biochemistry, 1980, 107, 220]., the respective part of which is hereby incorporated by reference and forms part of the disclosure.
On the technique in general: In a radioligand displacement assay an active substance lowers the binding of a labelled ligand.

T1 sequence (P50406 whole entry): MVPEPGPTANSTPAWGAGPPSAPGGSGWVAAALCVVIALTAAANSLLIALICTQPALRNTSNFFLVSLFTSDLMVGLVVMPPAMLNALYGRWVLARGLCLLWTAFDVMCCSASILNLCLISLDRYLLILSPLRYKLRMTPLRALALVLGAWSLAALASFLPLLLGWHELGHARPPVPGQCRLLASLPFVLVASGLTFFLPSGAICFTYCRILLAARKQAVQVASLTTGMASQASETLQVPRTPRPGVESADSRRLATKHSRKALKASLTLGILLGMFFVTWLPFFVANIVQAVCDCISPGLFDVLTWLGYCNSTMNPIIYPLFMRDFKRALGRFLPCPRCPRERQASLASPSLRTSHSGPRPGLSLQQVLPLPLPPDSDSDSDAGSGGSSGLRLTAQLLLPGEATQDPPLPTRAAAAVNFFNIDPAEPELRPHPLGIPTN

Broadly, the Ki is the equilibrium dissociation constant of an inhibitor or competing ligand from its target. The term inhibition denotes how much of the control response was suppressed. In the case of `CC1CCc2c(N3CCNCC3)cccc2N1S(=O)(=O)c1cccc2ccccc12` (stereo not drawn) [Compound 3, 1,2,3,4-tetrahydro-2-methyl-5-(piperazin-1-yl)-1-α-naphthylsulfonyl)quinoline trifluoroacetate], the Ki (tests in triplicate) is 31.4 ± 0.8 nM. Also, for the setting “compound at 10^−7 M”, the inhibition at 0.1 µM amounted to 85.8%.

The values are drawn from patent US20090030013A1, “SUBSTITUTED TETRAHYDRO-QUINOLINE-SULFONAMIDE COMPOUNDS, THEIR PREPARATION AND USE AS MEDICAMENTS” (LABORATORIES DEL DR. ESTEVE, S.A., priority 2007, published 2009).
